From the supplement of paper PMC10307832

Columns and labels:
Experiment in all cases: relative viability (nuclei count vs DMSO), 5 days (fraction); higher = more cells survive
Carboplatin = compound: C1CC(C1)(C(=O)O)C(=O)O.[NH2-].[NH2-].[Pt+2] [Carboplatin]
In short: (§1)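 Cells of lung cancer lines were placed in 1536-well plates and kept overnight at 37 °C. Pinning then delivered five library-drug doses (not always all listed), spaced by √10, onto plates anchored with vehicle, and the cells were left 5 days without changing medium. One step fixed, permeabilised and stained them with Hoechst, and MetaXpress counted nuclei in 4× images. Viability, as a median over plates, is treated-well nuclei divided by vehicle-well nuclei, with acceptance only at control CV below 25% and at least one doubling.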

GSK126 = compound: CC[C@H](C)N1C=C(C2=C(C=C(C=C21)C3=CN=C(C=C3)N4CCNCC4)C(=O)NCC5=C(C=C(NC5=O)C)C)C [GSK126]
In short: as §1

MLN4924 = compound: NS(=O)(=O)OC[C@@H]1C[C@@H](n2ccc3c(N[C@H]4CCc5ccccc54)ncnc32)C[C@@H]1O [MLN4924]
In short: as §1

Cell Line | relative viability (Carboplatin; 0.08 µM) | relative viability (Carboplatin; 0.253 µM) | relative viability (Carboplatin; 0.8 µM) | relative viability (Carboplatin; 2.53 µM) | relative viability (Carboplatin; 8 µM) | relative viability (GSK126; 0.08 µM) | relative viability (GSK126; 0.253 µM) | relative viability (GSK126; 0.8 µM) | relative viability (GSK126; 2.53 µM) | relative viability (GSK126; 8 µM) | relative viability (MLN4924; 0.04 µM) | relative viability (MLN4924; 0.1265 µM) | relative viability (MLN4924; 0.4 µM) | relative viability (MLN4924; 1.265 µM) | relative viability (MLN4924; 4 µM)
201T | 1.01 | 0.994 | 1.03 | 0.971 | 0.9 | 1.03 | 1.01 | 1.02 | 1.06 | 1.07 | 1.09 | 0.989 | 0.73 | 0.375 | 0.307
A549 | 1.02 | 1.01 | 0.938 | 0.935 | 0.563 | 1.08 | 0.946 | 0.955 | 1.01 | 0.987 | 0.946 | 0.863 | 0.658 | 0.0802 | 0.0487
A-427 | 1.07 | 1 | 1 | 1.07 | 1.01 | 1.09 | 1.02 | 0.97 | 1.09 | 1.07 | 0.515 | 0.44 | 0.31 | 0.218 | 0.234
ABC-1 | 1.04 | 0.873 | 0.985 | 0.88 | 0.587 | 1.11 | 1.03 | 0.992 | 1.15 | 1.05 | 1.06 | 0.965 | 0.384 | 0.249 | 0.283
BEN | 1.11 | 0.969 | 0.987 | 0.904 | 0.893 | 1.1 | 0.997 | 0.914 | 1.04 | 0.924 | 0.729 | 0.627 | 0.408 | 0.197 | 0.219
CAL-12T | 1.02 | 1.04 | 1 | 1.07 | 0.877 | 1.09 | 0.986 | 0.973 | 1.07 | 1.17 | 0.854 | 0.82 | 0.485 | 0.344 | 0.198
COR-L23 | 0.961 | 0.928 | 0.979 | 0.759 | 0.417 | 1.1 | 1.02 | 0.944 | 0.986 | 1.02 | 0.98 | 0.882 | 0.661 | 0.233 | 0.135
COR-L 105 | 0.975 | 0.939 | 0.845 | 0.831 | 0.52 | 1.03 | 0.87 | 0.856 | 1.02 | 0.971 | 0.775 | 0.773 | 0.431 | 0.258 | 0.336
Calu-6 | 1.01 | 1.03 | 0.973 | 0.851 | 0.491 | 1.1 | 1.05 | 0.954 | 1.07 | 1.03 | 0.914 | 0.653 | 0.24 | 0.141 | 0.134
ChaGo-K-1 | 0.989 | 0.959 | 0.93 | 0.818 | 0.614 | 1.01 | 1.03 | 0.973 | 1.05 | 1.02 | 0.858 | 0.833 | 0.503 | 0.238 | 0.23
EBC-1 | 1.07 | 0.987 | 0.97 | 0.969 | 0.851 | 1.03 | 0.966 | 0.969 | 0.978 | 0.947 | 0.855 | 0.703 | 0.283 | 0.104 | 0.131
